Test results from ChEMBL document CHEMBL5584243, “Discovery of JNJ-74856665: A Novel Isoquinolinone DHODH Inhibitor for the Treatment of AML” (J Med Chem, 2024).
Values after ≈ are worked out from the molar mass of the structure shown.

Columns and labels:
[1] = target: Dihydroorotate dehydrogenase (quinone), mitochondrial (Homo sapiens, UniProt Q02127); experiment: Binding affinity to recombinant human DHODH assessed as half life
PXR (NR1I2) = target: T1, PXR (NR1I2) (Homo sapiens, UniProt O75469); experiment: Activation of PXR (unknown origin) assessed as fold change at 10 uM relative to control; format: ADME; settings: read-out: FC
T1 sequence (O75469 whole entry): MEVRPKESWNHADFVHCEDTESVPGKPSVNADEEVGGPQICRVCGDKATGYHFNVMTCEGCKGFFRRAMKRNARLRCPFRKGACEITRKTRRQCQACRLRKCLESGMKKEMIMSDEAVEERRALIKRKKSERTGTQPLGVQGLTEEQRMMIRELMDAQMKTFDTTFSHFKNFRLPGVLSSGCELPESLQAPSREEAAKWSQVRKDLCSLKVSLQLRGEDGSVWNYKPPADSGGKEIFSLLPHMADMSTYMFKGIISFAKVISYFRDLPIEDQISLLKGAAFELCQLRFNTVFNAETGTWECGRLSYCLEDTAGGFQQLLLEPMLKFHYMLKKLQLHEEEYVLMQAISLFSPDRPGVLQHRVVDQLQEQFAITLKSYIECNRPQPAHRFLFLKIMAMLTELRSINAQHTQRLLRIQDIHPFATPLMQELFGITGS

[2] = target: T2, Kappa-type opioid receptor (Homo sapiens, UniProt P41145); experiment: Inhibition of KOP (unknown origin)
T2 sequence (P41145 whole entry): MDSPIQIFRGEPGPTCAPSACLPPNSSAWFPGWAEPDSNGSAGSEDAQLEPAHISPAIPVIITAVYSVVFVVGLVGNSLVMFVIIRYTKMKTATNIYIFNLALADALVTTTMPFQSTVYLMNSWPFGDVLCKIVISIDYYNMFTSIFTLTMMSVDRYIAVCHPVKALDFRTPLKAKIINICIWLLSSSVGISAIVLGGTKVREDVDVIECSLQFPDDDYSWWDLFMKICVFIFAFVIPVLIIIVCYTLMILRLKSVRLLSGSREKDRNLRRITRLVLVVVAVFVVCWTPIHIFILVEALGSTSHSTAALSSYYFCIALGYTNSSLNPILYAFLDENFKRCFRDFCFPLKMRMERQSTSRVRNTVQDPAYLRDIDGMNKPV

[3] = Metabolic stability in dog liver microsomes assessed as half life incubated upto 60 mins in presence of NADPH by LC-MS/MS analysis; format: ADME, Canis lupus familiaris, Microsome
[4] = Volume of distribution at steady state in cynomolgus monkey at 1 mg/kg,iv; format: ADME, organism-based, Macaca fascicularis; settings: in vivo, read-out: Vdss
[5] = target: Serine/threonine-protein kinase WNK2 (Homo sapiens) (UniProt Q9Y3S1); experiment: Inhibition of WNK2 (unknown origin) at 1 uM relative to control
Serine/threonine-protein kinase WNK2 (Homo sapiens), sequence (Q9Y3S1 whole entry): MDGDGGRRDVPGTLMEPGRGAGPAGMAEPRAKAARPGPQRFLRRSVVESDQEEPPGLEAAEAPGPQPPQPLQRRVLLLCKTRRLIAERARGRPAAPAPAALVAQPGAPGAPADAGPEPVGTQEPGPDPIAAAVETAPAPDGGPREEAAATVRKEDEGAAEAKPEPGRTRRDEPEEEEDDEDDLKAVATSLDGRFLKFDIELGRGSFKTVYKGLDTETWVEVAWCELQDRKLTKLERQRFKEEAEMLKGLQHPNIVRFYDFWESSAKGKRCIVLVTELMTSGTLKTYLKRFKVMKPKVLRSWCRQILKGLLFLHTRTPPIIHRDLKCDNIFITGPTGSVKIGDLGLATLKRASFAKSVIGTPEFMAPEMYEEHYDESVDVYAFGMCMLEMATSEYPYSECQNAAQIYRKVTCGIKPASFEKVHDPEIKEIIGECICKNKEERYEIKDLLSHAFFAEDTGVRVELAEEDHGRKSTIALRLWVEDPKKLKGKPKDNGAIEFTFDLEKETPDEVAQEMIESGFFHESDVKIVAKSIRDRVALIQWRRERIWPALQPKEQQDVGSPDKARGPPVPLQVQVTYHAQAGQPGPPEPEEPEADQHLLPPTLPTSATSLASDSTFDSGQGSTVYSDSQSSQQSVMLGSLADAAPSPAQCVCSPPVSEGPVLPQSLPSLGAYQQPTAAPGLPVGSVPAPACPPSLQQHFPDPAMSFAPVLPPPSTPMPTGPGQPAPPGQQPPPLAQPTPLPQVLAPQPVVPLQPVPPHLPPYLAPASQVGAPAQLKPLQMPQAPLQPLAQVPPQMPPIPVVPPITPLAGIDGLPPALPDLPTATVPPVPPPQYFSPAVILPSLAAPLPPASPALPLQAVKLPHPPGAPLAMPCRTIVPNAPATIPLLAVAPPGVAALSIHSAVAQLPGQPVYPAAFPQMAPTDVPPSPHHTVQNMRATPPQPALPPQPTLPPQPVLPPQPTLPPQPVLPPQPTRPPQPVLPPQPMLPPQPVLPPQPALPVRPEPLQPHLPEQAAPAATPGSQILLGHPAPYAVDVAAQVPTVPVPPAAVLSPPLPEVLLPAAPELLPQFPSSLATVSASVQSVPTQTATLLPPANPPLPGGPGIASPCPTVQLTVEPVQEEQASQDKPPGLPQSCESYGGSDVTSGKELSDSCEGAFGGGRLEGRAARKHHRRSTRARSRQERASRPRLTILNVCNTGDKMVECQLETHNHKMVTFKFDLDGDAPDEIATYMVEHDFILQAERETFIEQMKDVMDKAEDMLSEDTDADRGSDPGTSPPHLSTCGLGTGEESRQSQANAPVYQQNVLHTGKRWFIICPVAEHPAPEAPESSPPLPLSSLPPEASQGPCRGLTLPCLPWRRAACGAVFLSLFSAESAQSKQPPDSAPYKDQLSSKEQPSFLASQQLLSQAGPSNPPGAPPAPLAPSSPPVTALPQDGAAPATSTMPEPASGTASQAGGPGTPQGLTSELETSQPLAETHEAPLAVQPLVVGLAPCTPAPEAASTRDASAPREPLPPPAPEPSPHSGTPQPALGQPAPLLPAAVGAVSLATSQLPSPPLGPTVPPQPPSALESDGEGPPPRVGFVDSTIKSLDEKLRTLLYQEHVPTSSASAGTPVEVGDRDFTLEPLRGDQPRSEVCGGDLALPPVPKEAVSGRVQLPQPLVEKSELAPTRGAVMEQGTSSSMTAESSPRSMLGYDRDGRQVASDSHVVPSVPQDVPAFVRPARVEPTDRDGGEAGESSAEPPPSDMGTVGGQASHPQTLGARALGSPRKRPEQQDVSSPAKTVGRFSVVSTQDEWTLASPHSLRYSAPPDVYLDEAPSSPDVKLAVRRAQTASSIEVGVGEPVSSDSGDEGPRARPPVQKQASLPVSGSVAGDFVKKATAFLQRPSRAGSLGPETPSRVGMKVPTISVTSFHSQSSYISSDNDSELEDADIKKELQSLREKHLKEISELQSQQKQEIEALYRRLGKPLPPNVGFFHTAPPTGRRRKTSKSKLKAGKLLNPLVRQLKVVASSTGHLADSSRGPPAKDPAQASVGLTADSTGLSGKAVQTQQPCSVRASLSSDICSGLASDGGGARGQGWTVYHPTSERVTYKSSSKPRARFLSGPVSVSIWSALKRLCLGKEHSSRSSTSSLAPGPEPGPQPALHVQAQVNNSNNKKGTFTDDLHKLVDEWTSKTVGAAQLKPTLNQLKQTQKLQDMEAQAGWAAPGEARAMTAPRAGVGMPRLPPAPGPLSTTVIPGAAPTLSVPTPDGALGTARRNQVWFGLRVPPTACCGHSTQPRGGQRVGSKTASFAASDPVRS

[6] = Tmax in cynomolgus monkey at 10 mg/kg,po; format: ADME, organism-based, Macaca fascicularis; settings: in vivo
CYP3A4 [7] = target: T3, CYP3A4 (Homo sapiens, UniProt P08684); experiment: Induction of CYP3A4 in cryopreserved human hepatocytes using midazolam as substrate assessed as fold change at 1 uM relative to control; format: ADME, cell-based, Hepatocyte; settings: probe midazolam, read-out: FC
T3 sequence (P08684 whole entry): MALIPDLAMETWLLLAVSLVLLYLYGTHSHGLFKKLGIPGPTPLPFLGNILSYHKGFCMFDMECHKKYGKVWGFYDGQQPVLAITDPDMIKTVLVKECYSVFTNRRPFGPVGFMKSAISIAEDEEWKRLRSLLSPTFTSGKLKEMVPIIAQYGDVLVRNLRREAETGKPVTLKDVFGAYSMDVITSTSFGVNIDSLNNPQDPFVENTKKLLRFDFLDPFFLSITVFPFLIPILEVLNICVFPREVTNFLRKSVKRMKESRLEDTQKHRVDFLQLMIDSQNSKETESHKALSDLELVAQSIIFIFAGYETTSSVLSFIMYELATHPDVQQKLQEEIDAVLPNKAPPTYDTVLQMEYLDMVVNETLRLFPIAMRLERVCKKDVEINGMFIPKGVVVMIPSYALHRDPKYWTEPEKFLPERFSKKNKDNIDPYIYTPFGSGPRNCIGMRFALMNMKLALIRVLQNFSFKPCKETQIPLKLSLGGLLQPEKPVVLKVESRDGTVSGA

[8] = AUC (0 to infinity) in C57BL mouse at 2 mg/kg,iv measured upto 24 hrs by LC-MS/MS analysis; format: ADME, organism-based; settings: in vivo
MOLM-13 [9] = experiment: Antitumor activity against human MOLM-13 cells xenografted in NSG mouse assessed as tumor growth inhibition at 0.25 mg/kg,po administrated daily for 10 days relative to control; format: functional; settings: MOLM-13, 240 h, time 10 day, read-out: TGI
[10] = Plasma protein binding in C57BL mouse at 1 uM incubated for 6.5 hrs by LC-MS/MS analysis; format: ADME, cell-free; settings: read-out: PPB (converted)
[11] = Metabolic stability in rat liver microsomes assessed as half life incubated upto 60 mins in presence of NADPH by LC-MS/MS analysis; format: ADME, Microsome
[12] = Half life in cynomolgus monkey at 1 mg/kg,iv; format: ADME, organism-based, Macaca fascicularis; settings: in vivo
[13] = Cmax in C57BL mouse at […] measured upto 24 hrs by LC-MS/MS analysis; format: ADME, organism-based; settings: in vivo
CYP3A4 [14] = target: T3, CYP3A4; experiment: Induction of CYP3A4 in cryopreserved human hepatocytes using midazolam as substrate assessed as fold change at 10 uM relative to control; format: ADME, cell-based, Hepatocyte; settings: probe midazolam, read-out: FC
[15] = target: T2, Kappa-type opioid receptor; experiment: Inhibition of KOP (unknown origin) at 10 uM relative to control
[16] = Half life in human hepatocyte; format: ADME, cell-based; settings: hepatocytes
MOLM-13 [17] = experiment: Antitumor activity against human MOLM-13 cells xenografted in NSG mouse assessed as tumor growth inhibition at 0.062 mg/kg,po administrated daily for 10 days relative to control; format: functional; settings: MOLM-13, 240 h, time 10 day, read-out: TGI
[18] = Inhibition of Sodium ion channel (unknown origin); design: species or system Homo sapiens
[19] = Clearance in cynomolgus monkey at 1 mg/kg,iv; format: ADME, organism-based, Macaca fascicularis; settings: in vivo
[20] = Equilibrium solubility of compound in PBS at pH 7 incubated for 2 to 5 days by HPLC analysis; format: physicochemical; settings: time 2-5 day

Dihydroorotate dehydrogenase (quinone), mitochondrial, sequence (Q02127 whole entry): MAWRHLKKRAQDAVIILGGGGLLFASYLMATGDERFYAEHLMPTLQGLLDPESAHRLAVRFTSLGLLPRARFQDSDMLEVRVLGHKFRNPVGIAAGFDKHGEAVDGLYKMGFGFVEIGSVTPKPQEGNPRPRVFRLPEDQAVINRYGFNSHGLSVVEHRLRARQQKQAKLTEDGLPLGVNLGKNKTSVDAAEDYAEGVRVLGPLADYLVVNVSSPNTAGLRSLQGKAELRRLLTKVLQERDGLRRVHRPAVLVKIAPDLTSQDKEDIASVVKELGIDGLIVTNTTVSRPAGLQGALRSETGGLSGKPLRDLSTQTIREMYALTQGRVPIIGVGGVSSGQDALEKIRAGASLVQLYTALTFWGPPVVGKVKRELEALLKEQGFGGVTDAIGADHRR

CCn1c(CO)nn(-c2cc3c(C(C)C)cn(-c4ccccc4C)c(=O)c3cc2F)c1=O
T1/2 [1]: 0.328 h | fold induction at 10 µM (PXR (NR1I2)): 7.4 | IC50 [2]: 14 µM | half-life [3]: 0.958 h | Vd [4]: 1.2 L/kg | inhibition [5]: 51% | Tmax [6]: 3.3 h | fold induction at 1 µM (CYP3A4 [7]): < 2 | AUC [8]: 57200 ng·h/mL | inhibition in vivo at 0.25 mg/kg (MOLM-13 [9]): 93% | fraction unbound at 6.5 h, 1 µM [10]: 0.088 | half-life [11]: > 3 h | half-life [12]: 6.4 h | Cmax [13]: 6200 ng/mL | fold induction at 10 µM (CYP3A4 [14]): 2.5 | inhibition [15]: 96% | half-life [16]: > 6.18 h | inhibition in vivo at 0.062 mg/kg (MOLM-13 [17]): 75% | IC50 [18]: > 10 µM | clearance [19]: 2.4 mL/min/kg | solubility thermodynamic [20]: 371 µM (≈ 162 µg/mL)
